Assay results from patent US8846661B2, “Diazahomoadamantane derivatives and methods of use thereof” (AbbVie Inc., priority 2009, dated 2014).

Molecular target: α7 NNR (UniProt Q05941)
Settings: [3H]-DPPB binding
Protocol: [^3H]-DPPB, [^3H]-(S,S)-2,2-dimethyl-5-(6-phenyl-pyridazin-3-yl)-5-aza-2-azonia-bicyclo[2.2.1]heptane iodide, binding to the α7 NNR subtype was determined using membrane enriched fractions from rat brain minus cerebellum or human cortex (ABS Inc., Wilmington, Del.) as described in Anderson, D. J.; et al., J. Pharmacol. Exp. Ther. 2008, 324: 179-187 which is incorporated herein by reference. Briefly, pellets were thawed at 4° C., washed and resuspended with a Polytron at a setting of 7 in 30 volumes of BSS-Tris buffer (120 mM NaCl, 5 mM KCl, 2 mM CaCl2, 2 mM MgCl2, and 50 mM Tris-C1, pH 7.4, 4° C.). Seven log-dilution concentrations of test compounds containing 100-200 μg of protein, and 0.5 nM [^3H]-DPPB (62.8 Ci/mmol; R46V, Abbott Labs) were incubated in a final volume of 500 μL for 75 minutes at 4° C. in duplicate. Non-specific binding was determined in the presence of 10 μM methyllycaconitine. Bound radioactivity was collected on Millipore MultiScreen® harvest plates FB presoaked with 0.3% polyethyleneimine using a Packard cell harvester, washed with 2.5 mL ice-cold buffer, and radioactivity was determined using a Packard TopCount Microplate beta counter. IC50 values were determined by nonlinear regression in Microsoft® Excel or Assay Explorer. K, values were calculated from the IC50s using the Cheng-Prusoff equation, where Ki=IC50/(1+[Ligand]/KD) and are shown in Table 1.

| Compound | Ki [nM] |
| --- | --- |
| 4-[5-(3,4-difluorophenyl)pyridin-3-yl]-1,4-diazatricyclo[4.3.1.1^3s]undecane [Example 99] | > 10000 |
| O=C1NC2CC3CC1CN(C3)C2 (stereo not shown) [Example 1, 1,4-diazatricyclo[4.3.1.1^3,8]undecan-5-one] | 701 |
| O=C(c1cc2ccsc2cn1)N1CC2CC3CC1CN(C3)C2 (stereo not shown) [Example 3, 4-(thieno[2,3-c]pyridin-5-ylcarbonyl)-1,4-diazatricyclo[4.3.1.1^3,8]undecane] | 11.6 |
| O=C(c1ccc2sccc2n1)N1CC2CC3CC1CN(C3)C2 (stereo not shown) [Example 4, 4-(thieno[3,2-b]pyridin-5-ylcarbonyl)-1,4-diazatricyclo[4.3.1.1^3,8]undecane] | 456 |
| O=S1(=O)c2ccccc2-c2ccc(N3CC4CC5CC3CN(C5)C4)cc21 (stereo not shown) [Example 5, 4-(5,5-dioxidodibenzo[b,d]thien-3-yl)-1,4-diazatricyclo[4.3.1.1^3,8]undecane] | 2.3 |
| c1cc2cc(-c3ccc(N4CC5CC6CC4CN(C6)C5)nn3)ccc2s1 (stereo not shown) [Example 8, 4-[6-(1-benzothien-5-yl)pyridazin-3-yl]-1,4-diazatricyclo[4.3.1.1^3,8]undecane] | 3.5 |
| O=C(c1ccc2[nH]ccc2c1)N1CC2CC3CC1CN(C3)C2 (stereo not shown) [Example 37, 4-(1H-indol-5-ylcarbonyl)-1,4-diazatricyclo[4.3.1.1^3,8]undecane] | > 10000 |
| O=C(c1n[nH]c2ccccc12)N1CC2CC3CC1CN(C3)C2 (stereo not shown) [Example 57, 4-(1H-indazol-3-ylcarbonyl)-1,4-diazatricyclo[4.3.1.1^3,8]undecane] | 23.6 |
| c1cc(-c2cncc(N3CC4CC5CC3CN(C5)C4)c2)c2cc[nH]c2c1 (stereo not shown) [Example 104, 4-[5-(1H-indol-4-yl)pyridin-3-yl]-1,4-diazatricyclo[4.3.1.1^3,8]undecane] | 26.3 |
| COc1ccc(-c2cnc(N3CC4CC5CC3CN(C5)C4)s2)cc1 (stereo not shown) [Example 105, 4-[5-(4-methoxyphenyl)-1,3-thiazol-2-yl]-1,4-diazatricyclo[4.3.1.1^3,8]undecane] | 133 |
| Cc1ccc(-c2cnc(N3CC4CC5CC3CN(C5)C4)s2)cc1 (stereo not shown) [Example 106, 4-[5-(4-methylphenyl)-1,3-thiazol-2-yl]-1,4-diazatricyclo[4.3.1.1^3,8]undecane] | 26.4 |
| Fc1cccc(-c2cnc(N3CC4CC5CC3CN(C5)C4)s2)c1 (stereo not shown) [Example 108, 4-[5-(3-fluorophenyl)-1,3-thiazol-2-yl]-1,4-diazatricyclo[4.3.1.1^3,8]undecane] | 37.7 |
| Fc1ccc(-c2cnc(N3CC4CC5CC3CN(C5)C4)s2)cc1 (stereo not shown) [Example 110, 4-[5-(4-fluorophenyl)-1,3-thiazol-2-yl]-1,4-diazatricyclo[4.3.1.1^3,8]undecane] | 53.6 |
| Clc1ccc2nc(N3CC4CC5CC3CN(C5)C4)sc2c1 (stereo not shown) [Example 111, 4-(6-chloro-1,3-benzothiazol-2-yl)-1,4-diazatricyclo[4.3.1.1^3,8]undecane] | 114 |
| Clc1ccc2nc(N3CC4CC5CC3CN(C5)C4)oc2c1 (stereo not shown) [Example 112, 4-(6-chloro-1,3-benzoxazol-2-yl)-1,4-diazatricyclo[4.3.1.1^3,8]undecane] | 35.5 |
| c1ccc2sc(N3CC4CC5CC3CN(C5)C4)nc2c1 (stereo not shown) [Example 113, 4-(1,3-benzothiazol-2-yl)-1,4-diazatricyclo[4.3.1.1^3,8]undecane] | > 10000 |
